# ChEMBL document CHEMBL2413072, “Synthesis and in vitro anticancer studies of novel C-2 arylidene congeners of lantadenes” (2013)
# Assays:
# Type in all cases: functional
# RXF 393 = experiment: Growth inhibition of human RXF393 cells assessed as cell growth at 10^-4 M by sulforhodamine B assay; settings: read-out: Activity
# HCT-116 = experiment: Growth inhibition of human HCT116 cells by sulforhodamine B assay
# SK-MEL-2 = experiment: Growth inhibition of human SK-MEL-2 cells assessed as cell growth at 10^-6 M by sulforhodamine B assay; settings: read-out: Activity
# DU-145 = experiment: Growth inhibition of human DU145 cells assessed as cell growth at 10^-7 M by sulforhodamine B assay; settings: read-out: Activity
# HL-60(TB) = experiment: Growth inhibition of human HL-60(TB) cells assessed as cell growth at 10^-7 M by sulforhodamine B assay; settings: read-out: Activity
# SNB-19 [1] = experiment: Growth inhibition of human SNB19 cells assessed as cell growth at 10^-8 M by sulforhodamine B assay; settings: read-out: Activity
# UACC-62 = experiment: Growth inhibition of human UACC62 cells assessed as cell growth at 10^-4 M by sulforhodamine B assay; settings: read-out: Activity
# SK-MEL-5 = experiment: Growth inhibition of human SK-MEL-5 cells by sulforhodamine B assay
# IGROV-1 [2] = experiment: Growth inhibition of human IGROV1 cells assessed as cell growth at 10^-6 M by sulforhodamine B assay; settings: read-out: Activity
# HCT-15 = experiment: Growth inhibition of human HCT15 cells by sulforhodamine B assay
# MDA-MB-231 = experiment: Growth inhibition of human MDA-MB-231 cells assessed as cell growth at 10^-8 M by sulforhodamine B assay; settings: read-out: Activity
# NCI-H23 = experiment: Growth inhibition of human NCI-H23 cells assessed as cell growth at 10^-6 M by sulforhodamine B assay; settings: read-out: Activity
# SR = experiment: Growth inhibition of human SR cells assessed as cell growth at 10^-7 M by sulforhodamine B assay; settings: read-out: Activity
# SN12C [3] = experiment: Growth inhibition of human SN12C cells assessed as cell growth at 10^-6 M by sulforhodamine B assay; settings: read-out: Activity
# HT-29 = experiment: Growth inhibition of human HT-29 cells assessed as cell growth at 10^-7 M by sulforhodamine B assay; settings: read-out: Activity
# [4] = Growth inhibition of human Hs 578T cells assessed as cell growth at 10^-6 M by sulforhodamine B assay; settings: read-out: Activity
# U-251 [5] = experiment: Growth inhibition of human U251 cells assessed as cell growth at 10^-4 M by sulforhodamine B assay; settings: read-out: Activity
# OVCAR-8 = experiment: Growth inhibition of human OVCAR8 cells assessed as cell growth at 10^-4 M by sulforhodamine B assay; settings: read-out: Activity
# SNB-19 [6] = experiment: Growth inhibition of human SNB19 cells assessed as cell growth at 10^-6 M by sulforhodamine B assay; settings: read-out: Activity
# 786-0 [7] = experiment: Growth inhibition of human 786-0 cells assessed as cell growth at 10^-8 M by sulforhodamine B assay; settings: read-out: Activity
# [8] = Growth inhibition of human HCC2998 cells assessed as cell growth at 10^-7 M by sulforhodamine B assay; settings: HCC 2998, read-out: Activity
# MCF7 = experiment: Growth inhibition of human MCF7 cells assessed as cell growth at 10^-6 M by sulforhodamine B assay; settings: read-out: Activity
# 786-0 [9] = experiment: Growth inhibition of human 786-0 cells assessed as cell growth at 10^-4 M by sulforhodamine B assay; settings: read-out: Activity
# NCI-H522 = experiment: Growth inhibition of human NCI-H522 cells assessed as cell growth at 10^-4 M by sulforhodamine B assay; settings: read-out: Activity
# COLO 205 = experiment: Growth inhibition of human COLO205 cells assessed as cell growth at 10^-6 M by sulforhodamine B assay; settings: read-out: Activity
# A549 = experiment: Growth inhibition of human A549/ATCC cells assessed as cell growth at 10^-6 M by sulforhodamine B assay; settings: read-out: Activity
# UO-31 = experiment: Growth inhibition of human UO31 cells assessed as cell growth at 10^-6 M by sulforhodamine B assay; settings: read-out: Activity
# PC-3 = experiment: Growth inhibition of human PC3 cells assessed as cell growth at 10^-4 M by sulforhodamine B assay; settings: read-out: Activity
# NCI-H322M = experiment: Growth inhibition of human NCI-H322M cells assessed as cell growth at 10^-8 M by sulforhodamine B assay; settings: read-out: Activity
# MDA-MB-435 = experiment: Growth inhibition of human MDA-MB-435 cells assessed as cell growth at 10^-4 M by sulforhodamine B assay; settings: read-out: Activity
# IGROV-1 [10] = experiment: Growth inhibition of human IGROV1 cells assessed as cell growth at 10^-7 M by sulforhodamine B assay; settings: read-out: Activity
# SN12C [11] = experiment: Growth inhibition of human SN12C cells by sulforhodamine B assay
# 786-0 [12] = experiment: Growth inhibition of human 786-0 cells by sulforhodamine B assay
# M14 = experiment: Growth inhibition of human M14 cells assessed as cell growth at 10^-4 M by sulforhodamine B assay; settings: read-out: Activity
# MOLT-4 = experiment: Growth inhibition of human MOLT4 cells assessed as cell growth at 10^-8 M by sulforhodamine B assay; settings: read-out: Activity
# U-251 [13] = experiment: Growth inhibition of human U251 cells by sulforhodamine B assay
# NCI-H460 = experiment: Growth inhibition of human NCI-H460 cells by sulforhodamine B assay
# [14] = Growth inhibition of human NCI-ADR-RES cells assessed as cell growth at 10^-8 M by sulforhodamine B assay; settings: read-out: Activity
# SNB-75 = experiment: Growth inhibition of human SNB75 cells by sulforhodamine B assay
# [15] = read-out: LC50 (the source's name)
# [16] = read-out: pLC50 (the source's name) (converted)
structure (smiles),measurement,setting,value
CC(C)=CC(=O)O[C@@H]1CC(C)(C)C[C@H]2C3=CC[C@@H]4[C@@]5(C)CCC(=O)C(C)(C)[C@@H]5CC[C@@]4(C)[C@]3(C)CC[C@@]12C(=O)O,growth at 100 µM,RXF 393,-67%
same,GI50,HCT-116; read-out: GI50,2350 nM
same,LC50,HCT-116; read-out: LC50,> 100 µM
same,TGI,HCT-116; read-out: TGI,53.5 µM
same,GI50,HCT-116; read-out: pGI50 (converted),2340 nM
same,LC50,HCT-116; read-out: pLC50 (converted),> 100 µM
same,TGI,HCT-116; read-out: pTGI (converted),53.7 µM
same,growth at 1 µM,SK-MEL-2,85%
same,growth at 0.1 µM,DU-145,105%
same,growth at 0.1 µM,HL-60(TB),93%
same,growth at 0.01 µM,SNB-19 [1],98%
same,growth at 100 µM,UACC-62,-80%
same,GI50,SK-MEL-5; read-out: GI50,1500 nM
same,CC50,SK-MEL-5; [15],46.2 µM
same,TGI,SK-MEL-5; read-out: TGI,11.7 µM
same,GI50,SK-MEL-5; read-out: pGI50 (converted),1510 nM
same,CC50,SK-MEL-5; [16],45.7 µM
same,TGI,SK-MEL-5; read-out: pTGI (converted),11.7 µM
same,growth at 1 µM,IGROV-1 [2],98%
same,GI50,HCT-15; read-out: GI50,1290 nM
same,LC50 (50% lethal concentration),HCT-15; read-out: LC50,> 100 µM
same,TGI,HCT-15; read-out: TGI,15.6 µM
same,GI50,HCT-15; read-out: pGI50 (converted),1290 nM
same,LC50 (50% lethal concentration),HCT-15; read-out: pLC50 (converted),> 100 µM
same,TGI,HCT-15; read-out: pTGI (converted),15.5 µM
same,growth at 0.01 µM,MDA-MB-231,96%
same,growth at 1 µM,NCI-H23,88%
same,growth at 0.1 µM,SR,99%
same,growth at 1 µM,SN12C [3],80%
same,growth at 0.1 µM,HT-29,95%
same,growth at 1 µM,[4],86%
same,growth at 100 µM,U-251 [5],-49%
same,growth at 100 µM,OVCAR-8,11%
same,growth at 1 µM,SNB-19 [6],87%
same,growth at 0.01 µM,786-0 [7],99%
same,growth at 0.1 µM,[8],96%
same,growth at 1 µM,MCF7,84%
same,growth at 100 µM,786-0 [9],-42%
same,growth at 100 µM,NCI-H522,-20%
same,growth at 1 µM,COLO 205,103%
same,growth at 1 µM,A549,46%
same,growth at 1 µM,UO-31,82%
same,growth at 100 µM,PC-3,-1%
same,growth at 0.01 µM,NCI-H322M,93%
same,growth at 100 µM,MDA-MB-435,1%
same,growth at 0.1 µM,IGROV-1 [10],108%
same,GI50,SN12C [11]; read-out: GI50,3.12 µM
same,CC50,SN12C [11]; [15],> 100 µM
same,TGI,SN12C [11]; read-out: TGI,21.8 µM
same,GI50,SN12C [11]; read-out: pGI50 (converted),3.09 µM
same,CC50,SN12C [11]; [16],> 100 µM
same,TGI,SN12C [11]; read-out: pTGI (converted),21.9 µM
same,GI50,786-0 [12]; read-out: GI50,3.69 µM
same,CC50,786-0 [12]; [15],> 100 µM
same,TGI,786-0 [12]; read-out: TGI,20.2 µM
same,GI50,786-0 [12]; read-out: pGI50 (converted),3.72 µM
same,CC50,786-0 [12]; [16],> 100 µM
same,TGI,786-0 [12]; read-out: pTGI (converted),20 µM
same,growth at 100 µM,M14,-62%
same,growth at 0.01 µM,MOLT-4,107%
same,GI50,U-251 [13]; read-out: GI50,2900 nM
same,CC50,U-251 [13]; [15],> 100 µM
same,TGI,U-251 [13]; read-out: TGI,20.7 µM
same,GI50,U-251 [13]; read-out: pGI50 (converted),2880 nM
same,CC50,U-251 [13]; [16],> 100 µM
same,TGI,U-251 [13]; read-out: pTGI (converted),20.9 µM
same,GI50,NCI-H460; read-out: GI50,2210 nM
same,LC50,NCI-H460; read-out: LC50,85.5 µM
same,TGI,NCI-H460; read-out: TGI,14.6 µM
same,GI50,NCI-H460; read-out: pGI50 (converted),2190 nM
same,LC50,NCI-H460; read-out: pLC50 (converted),85.1 µM
same,TGI,NCI-H460; read-out: pTGI (converted),14.5 µM
same,growth at 0.01 µM,[14],103%
same,GI50,SNB-75; read-out: GI50,7.71 µM
same,CC50,SNB-75; [15],> 100 µM
same,TGI,SNB-75; read-out: TGI,39.2 µM
same,GI50,SNB-75; read-out: pGI50 (converted),7.76 µM
same,CC50,SNB-75; [16],> 100 µM
same,TGI,SNB-75; read-out: pTGI (converted),38.9 µM
